How the values were obtained:
[1] = test system: inactivated state of the channel of interest (sodium channel); test: Electrophysiological assay (whole cell voltage clamp, in vitro); format: cell-based; settings: affinity for the inactivated state of the channel of interest
Method in brief: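 Whole-cell voltage clamp at ambient temperature on stably transfected cells; CsF-based pipette, pH 7.4 NaCl bath. Current blockade measured at holding potentials of −120 mV (resting, Kr) and one giving 10% availability (inactivated, Ki), held ≥10 s to equilibrate; apparent Kd calculated from fractional block.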

[2] = molecular target: CYP3A4 (Homo sapiens, UniProt P08684); test: Cytochrome P450 (CYP450) Inhibition Assay, CYP3A4 (Vivid fluorescence, BOMCC substrate); settings: human, P450 Baculosomes (recombinant CYP3A4), probe BOMCC (Vivid substrate)
CYP3A4, sequence (P08684 whole entry): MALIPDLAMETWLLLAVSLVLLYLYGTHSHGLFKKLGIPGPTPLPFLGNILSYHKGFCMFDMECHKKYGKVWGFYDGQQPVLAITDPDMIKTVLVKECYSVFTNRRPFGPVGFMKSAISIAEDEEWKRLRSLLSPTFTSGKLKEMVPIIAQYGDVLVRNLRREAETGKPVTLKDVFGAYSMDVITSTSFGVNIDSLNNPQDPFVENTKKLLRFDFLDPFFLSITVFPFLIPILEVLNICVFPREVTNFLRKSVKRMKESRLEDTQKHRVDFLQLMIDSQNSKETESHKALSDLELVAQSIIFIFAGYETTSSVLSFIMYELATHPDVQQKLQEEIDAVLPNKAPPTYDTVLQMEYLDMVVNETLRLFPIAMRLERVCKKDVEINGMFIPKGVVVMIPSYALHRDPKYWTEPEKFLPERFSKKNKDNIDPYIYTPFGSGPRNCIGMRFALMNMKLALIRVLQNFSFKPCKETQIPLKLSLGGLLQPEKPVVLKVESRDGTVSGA

[3] = test system: sodium channel; test: Guanidine influx assay (14C-guanidine radiotracer flux, in vitro); format: cell-based, human or rat; settings: guanidine influx assay using a known cell line that expresses a sodium channel
Method in brief: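 Radiotracer read-out: intracellular 14C-guanidine counted after washing with guanidine-supplemented low-sodium buffer. Cells expressing human or rat channels get test agent plus aconitine activator and tracer, incubated at ambient temperature. Dilution series centred on 1 μM; IC50 by sigmoidal dose-response fit.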

[4] = molecular target: Nav1.4 (Cricetulus griseus, UniProt A0A9J7H6F9); format: cell-based, Chinese Hamster
Nav1.4, sequence (A0A9J7H6F9 1-1930): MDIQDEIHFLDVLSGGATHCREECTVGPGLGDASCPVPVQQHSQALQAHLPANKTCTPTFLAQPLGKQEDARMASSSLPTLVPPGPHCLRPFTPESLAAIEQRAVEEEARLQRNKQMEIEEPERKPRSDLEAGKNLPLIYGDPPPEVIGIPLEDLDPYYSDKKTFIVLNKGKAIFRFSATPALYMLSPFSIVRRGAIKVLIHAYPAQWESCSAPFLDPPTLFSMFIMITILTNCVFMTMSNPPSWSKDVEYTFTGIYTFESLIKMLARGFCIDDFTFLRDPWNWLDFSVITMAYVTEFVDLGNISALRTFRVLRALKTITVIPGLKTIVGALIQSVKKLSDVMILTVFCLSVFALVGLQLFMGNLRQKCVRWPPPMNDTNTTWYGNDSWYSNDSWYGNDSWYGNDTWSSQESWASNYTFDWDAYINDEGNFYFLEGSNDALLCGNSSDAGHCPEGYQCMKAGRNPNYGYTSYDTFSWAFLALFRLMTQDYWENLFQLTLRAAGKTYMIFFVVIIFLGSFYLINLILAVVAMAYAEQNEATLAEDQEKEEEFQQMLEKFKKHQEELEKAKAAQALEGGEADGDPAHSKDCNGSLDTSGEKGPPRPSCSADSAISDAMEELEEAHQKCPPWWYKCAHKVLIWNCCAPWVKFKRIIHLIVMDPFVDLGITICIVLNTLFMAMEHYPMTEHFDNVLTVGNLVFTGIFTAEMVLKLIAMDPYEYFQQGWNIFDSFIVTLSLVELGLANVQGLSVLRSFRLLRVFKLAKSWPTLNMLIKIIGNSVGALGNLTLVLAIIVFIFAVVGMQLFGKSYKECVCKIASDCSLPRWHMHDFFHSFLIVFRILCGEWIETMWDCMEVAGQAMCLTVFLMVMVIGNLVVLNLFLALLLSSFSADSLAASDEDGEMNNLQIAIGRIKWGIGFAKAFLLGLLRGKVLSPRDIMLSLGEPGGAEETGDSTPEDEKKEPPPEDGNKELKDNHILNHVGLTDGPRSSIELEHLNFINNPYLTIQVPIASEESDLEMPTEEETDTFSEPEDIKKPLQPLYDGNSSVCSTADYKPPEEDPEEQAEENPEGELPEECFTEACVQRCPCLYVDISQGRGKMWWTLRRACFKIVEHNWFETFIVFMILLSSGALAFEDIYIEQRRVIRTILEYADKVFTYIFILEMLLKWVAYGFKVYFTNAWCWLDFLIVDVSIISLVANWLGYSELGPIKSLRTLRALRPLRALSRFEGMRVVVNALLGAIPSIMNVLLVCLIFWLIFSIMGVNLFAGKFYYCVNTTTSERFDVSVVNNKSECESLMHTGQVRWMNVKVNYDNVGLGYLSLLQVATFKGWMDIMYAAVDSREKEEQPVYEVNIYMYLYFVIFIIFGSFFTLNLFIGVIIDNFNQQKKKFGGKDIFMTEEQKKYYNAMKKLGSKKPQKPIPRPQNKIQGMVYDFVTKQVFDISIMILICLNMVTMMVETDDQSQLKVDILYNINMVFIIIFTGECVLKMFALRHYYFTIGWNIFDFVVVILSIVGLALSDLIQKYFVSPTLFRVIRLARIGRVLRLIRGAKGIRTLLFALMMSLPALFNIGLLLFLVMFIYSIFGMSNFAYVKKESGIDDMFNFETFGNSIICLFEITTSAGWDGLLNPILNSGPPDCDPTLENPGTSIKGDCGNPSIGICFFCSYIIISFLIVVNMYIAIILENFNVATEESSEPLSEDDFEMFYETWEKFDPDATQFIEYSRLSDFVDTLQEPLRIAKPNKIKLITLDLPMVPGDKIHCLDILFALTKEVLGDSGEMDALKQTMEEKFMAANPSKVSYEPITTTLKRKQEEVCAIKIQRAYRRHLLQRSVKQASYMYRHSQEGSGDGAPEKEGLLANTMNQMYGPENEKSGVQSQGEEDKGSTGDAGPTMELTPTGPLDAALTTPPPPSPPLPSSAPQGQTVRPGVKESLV

[5] = molecular target: Nav1.8 (Homo sapiens, UniProt Q9Y5Y9); format: cell-based
Nav1.8, sequence (Q9Y5Y9 whole entry, looked up): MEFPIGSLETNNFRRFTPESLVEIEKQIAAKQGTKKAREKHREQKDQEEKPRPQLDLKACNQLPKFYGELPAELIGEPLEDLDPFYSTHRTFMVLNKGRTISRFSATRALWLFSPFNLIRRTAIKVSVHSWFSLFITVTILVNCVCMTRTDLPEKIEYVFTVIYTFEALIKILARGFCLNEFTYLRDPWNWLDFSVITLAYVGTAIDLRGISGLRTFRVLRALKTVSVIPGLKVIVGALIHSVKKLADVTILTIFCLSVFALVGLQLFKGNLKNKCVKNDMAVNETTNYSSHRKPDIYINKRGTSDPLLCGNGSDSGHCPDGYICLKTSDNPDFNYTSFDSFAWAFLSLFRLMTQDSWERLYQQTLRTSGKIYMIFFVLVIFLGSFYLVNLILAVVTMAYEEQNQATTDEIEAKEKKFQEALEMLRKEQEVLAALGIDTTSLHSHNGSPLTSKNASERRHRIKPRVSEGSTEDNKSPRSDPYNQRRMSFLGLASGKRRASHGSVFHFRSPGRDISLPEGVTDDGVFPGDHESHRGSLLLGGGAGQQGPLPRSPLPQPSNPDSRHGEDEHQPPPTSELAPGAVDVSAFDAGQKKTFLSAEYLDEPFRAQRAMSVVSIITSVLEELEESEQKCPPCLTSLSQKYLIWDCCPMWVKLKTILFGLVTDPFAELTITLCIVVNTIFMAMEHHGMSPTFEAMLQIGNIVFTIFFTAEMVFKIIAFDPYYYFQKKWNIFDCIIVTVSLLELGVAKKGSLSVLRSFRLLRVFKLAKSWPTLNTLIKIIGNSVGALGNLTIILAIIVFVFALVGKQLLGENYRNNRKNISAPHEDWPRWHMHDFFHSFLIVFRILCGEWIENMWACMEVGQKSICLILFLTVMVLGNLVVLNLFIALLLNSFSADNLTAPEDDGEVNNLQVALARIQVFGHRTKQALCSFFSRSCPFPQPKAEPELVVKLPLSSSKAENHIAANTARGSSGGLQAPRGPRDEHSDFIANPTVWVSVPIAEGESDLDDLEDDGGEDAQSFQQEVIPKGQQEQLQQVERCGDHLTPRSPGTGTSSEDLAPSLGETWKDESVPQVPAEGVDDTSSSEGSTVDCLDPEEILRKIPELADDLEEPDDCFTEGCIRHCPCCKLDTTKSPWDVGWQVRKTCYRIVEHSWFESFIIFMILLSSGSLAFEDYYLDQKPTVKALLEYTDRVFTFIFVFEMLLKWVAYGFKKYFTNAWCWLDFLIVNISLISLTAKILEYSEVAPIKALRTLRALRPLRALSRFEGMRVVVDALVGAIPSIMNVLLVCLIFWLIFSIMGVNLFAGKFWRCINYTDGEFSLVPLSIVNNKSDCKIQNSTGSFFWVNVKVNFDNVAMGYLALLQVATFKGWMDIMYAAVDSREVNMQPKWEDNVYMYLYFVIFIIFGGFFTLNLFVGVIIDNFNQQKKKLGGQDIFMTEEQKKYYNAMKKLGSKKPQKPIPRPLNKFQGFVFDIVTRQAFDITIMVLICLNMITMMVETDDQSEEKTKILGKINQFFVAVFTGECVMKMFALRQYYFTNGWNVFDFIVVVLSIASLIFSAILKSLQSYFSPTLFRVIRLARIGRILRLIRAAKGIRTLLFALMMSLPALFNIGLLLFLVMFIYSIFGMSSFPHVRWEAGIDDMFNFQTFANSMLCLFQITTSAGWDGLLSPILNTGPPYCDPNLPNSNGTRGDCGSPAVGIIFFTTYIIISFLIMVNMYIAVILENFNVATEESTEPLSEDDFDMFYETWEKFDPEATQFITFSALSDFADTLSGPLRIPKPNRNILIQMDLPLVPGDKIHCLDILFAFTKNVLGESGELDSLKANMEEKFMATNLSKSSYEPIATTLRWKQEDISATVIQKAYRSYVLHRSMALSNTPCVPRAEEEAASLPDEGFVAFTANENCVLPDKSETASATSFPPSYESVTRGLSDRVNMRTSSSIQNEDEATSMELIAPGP

[6] = test system: Nav1.4 and 1.5; format: cell-based, rat
[7] = test system: Nav1.9 and Nav1.7; format: cell-based, Human
[8] = molecular target: Nav1.2 (Rattus norvegicus, UniProt P04775)
[9] = rat; intravenous application; concentrations that do not affect general behaviour and motor function; cited from earlier work

Structure (SMILES)	Ki [1] [nM]	inhibition at 10 µM [2] [%]	IC50 ([3]; activity level class) [nM]	melting point [°C]	IC50 [3] [nM]	other results
Cc1noc2cc3c(cc12)C1(CO3)C(=O)N(Cc2ccc(C(F)(F)F)o2)c2ccccc21 (centres unmarked) [Example 9, 3-methyl-1′-{[5-(trifluoromethyl)furan-2-yl]methyl}spiro[furo[3,2-f][1,2]benzisoxazole-5,3′-indol]-2′(1′H)-one]	< 300	> 50	1 to 100	111 to 112	–	–
O=C1N(Cc2ccncn2)c2ccccc2C12COc1cc3c(cc12)CCO3 (centres unmarked) [Example 9.6, 1-(pyrimidin-4-ylmethyl)-5,6-dihydrospiro[benzo[1,2-b:5,4-b′]difuran-3,3′-indol]-2′(1′H)-one]	> 300	< 50	1 to 100	158 to 160	–	–
COCCOCCN1C(=O)C2(COc3cc4c(cc32)OCCO4)c2ccccc21 (centres unmarked) [Example 9.20, 1′-[2-(2-methoxyethoxy)ethyl]-2,3-dihydrospiro[furo[2,3-g][1,4]benzodioxine-8,3′-indol]-2′(1′H)-one]	< 300	< 50	1 to 100	90 to 91	–	–
Cc1noc2cc3c(cc12)C1(CO3)C(=O)N(Cc2ccccn2)c2ccccc21 (centres unmarked) [Example 9.24, 3-methyl-1′-(pyridin-2-ylmethyl)spiro[furo[3,2-f][1,2]benzisoxazole-5,3′-indol]-2′(1′H)-one]	> 300	> 50	1 to 100	142 to 143	–	–
Cc1nc(-c2ccc(CN3C(=O)C4(COc5cc6c(cc54)CCO6)c4ccccc43)cc2)no1 (centres unmarked) [Example 11.14, 1′-[4-(5-methyl-1,2,4-oxadiazol-3-yl)benzyl]-5,6-dihydrospiro[benzo[1,2-b:5,4-b′]difuran-3,3′-indol]-2′(1′H)-one]	< 300	< 50	–	185 to 186	1 to 100	–
Cc1nc(-c2cccc(CN3C(=O)C4(COc5cc6c(cc54)CCO6)c4ccccc43)c2)no1 (centres unmarked) [Example 11.27, 1′-[3-(5-methyl-1,2,4-oxadiazol-3-yl)benzyl]-5,6-dihydrospiro[benzo[1,2-b:5,4-b′]difuran-3,3′-indol]-2′(1′H)-one]	< 300	> 50	–	209 to 213	1 to 100	–
CN(C)C(=O)c1ccc(CN2C(=O)C3(COc4cc5c(cc43)OCCO5)c3ccccc32)o1 (centres unmarked) [Example 11.33, N,N-dimethyl-5-[(2′-oxo-2,3-dihydrospiro[furo[2,3-g][1,4]benzodioxine-8,3′-indol]-1′(2′H)-yl)methyl]furan-2-carboxamide]	< 300	> 50	–	224 to 226	100 to 1000	–
Cc1nc(-c2ccc3c(c2)OCC32C(=O)N(Cc3ccccn3)c3ccccc32)no1 (centres unmarked) [Example 11.85, 6-(5-methyl-1,2,4-oxadiazol-3-yl)-1′-(pyridin-2-ylmethyl)spiro[1-benzofuran-3,3′-indol]-2′(1′H)-one]	> 300	< 50	–	147 to 148	100 to 1000	–
NC1=N[C@H](O)[C@H]2[C@H]3O[C@]4(O)O[C@@H]([C@@H](O)[C@@]2(N1)[C@@H]4O)[C@]3(O)CO [TTX, tetrodotoxin]	–	–	–	–	–	block of the increase in [14C] guanidine influx [4]: completely blocked using TTX.; block of the increase in [14C] guanidine influx [5]: TTX partially blocked influx; block of the increase in [14C] guanidine influx [6]: partially blocked by TTX at 100 nM; block of the increase in [14C] guanidine influx [7]: background was partially blocked; block of the increase in [14C] guanidine influx [8]: guanidine influx was completely
CCN(CC)CC(=O)Nc1c(C)cccc1C [lidocaine]	–	–	–	–	–	effect on ectopic activity and tactile allodynia [9]: suppress the ectopic activity and reverse the tactile allodynia
